For assay [1], the target named is T1, Solute carrier family 22 member 6 (Homo sapiens, UniProt Q4U2R8).
T1 sequence (Q4U2R8 whole entry): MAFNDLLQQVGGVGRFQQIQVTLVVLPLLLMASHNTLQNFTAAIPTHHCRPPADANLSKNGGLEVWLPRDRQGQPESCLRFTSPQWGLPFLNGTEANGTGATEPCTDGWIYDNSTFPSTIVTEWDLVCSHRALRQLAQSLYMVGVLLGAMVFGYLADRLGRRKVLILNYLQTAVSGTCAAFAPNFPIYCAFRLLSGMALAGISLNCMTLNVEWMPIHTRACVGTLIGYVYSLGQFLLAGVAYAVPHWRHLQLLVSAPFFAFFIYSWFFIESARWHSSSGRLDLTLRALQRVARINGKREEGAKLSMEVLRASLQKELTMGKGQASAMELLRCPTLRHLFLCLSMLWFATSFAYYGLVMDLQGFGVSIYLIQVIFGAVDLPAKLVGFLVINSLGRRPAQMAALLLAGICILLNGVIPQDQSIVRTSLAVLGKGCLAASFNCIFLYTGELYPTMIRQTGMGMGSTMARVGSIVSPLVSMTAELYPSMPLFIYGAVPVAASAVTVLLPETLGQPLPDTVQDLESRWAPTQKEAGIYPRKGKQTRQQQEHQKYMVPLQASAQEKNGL
The assay is described as follows: TP_TRANSPORTER: inhibition of PAH uptake in OAT1-expressing CHO cells. In kind it is functional, cell-based.

Assay [2] has as its target T1, Solute carrier family 22 member 6. The assay is described as follows: TP_TRANSPORTER: inhibition of PAH uptake in OAT1-COS7 cells. In kind it is functional, cell-based, COS-7.
Assay [3] has the same target. The assay is described as follows: TP_TRANSPORTER: trans-stimulation in OAT1-COS7 cells. In kind it is functional, cell-based, COS-7.

The structures appear in SMILES notation.

One may read the IC50 as the midpoint of a concentration-inhibition curve.

`N[C@@H](CSc1nc2ccccc2s1)C(=O)O` returned an IC50 in assay [1] of 9.9 µM. In turn, `N[C@H](CS/C(Cl)=C/Cl)C(=O)O` had a half-inhibitory concentration (IC50) in assay [2] of 208 µM.

`N[C@H](CSc1nc2ccccc2s1)C(=O)O` [BENZOTHIAZOLYLCYSTEINE] gave an IC50 in assay [3] of 9.9 µM.

These data come from ChEMBL document CHEMBL2074104, “Interaction of cysteine conjugates with human and rabbit organic anion transporter 1” (J Pharmacol Exp Ther, 2003).
